Experimental data reported in ChEMBL document CHEMBL1136384, “Design, synthesis and biological evaluation of hetaryl-nucleoside derivatives as inhibitors of chitin synthase” (Bioorg Med Chem Lett, 2003).
pIC50, pKi: −log10 of the molar value.

Tests used:
[1] = Compound tested for the inhibition of chitin synthase using Saccharomyces cerevisiae cells (X2180 strain)
[2] = system: Cryptococcus neoformans; experiment: Inhibitory activity tested against Cryptococcus neoformans at 256 ug/mL concentration; assay type: functional
[3] = system: Saccharomyces cerevisiae; experiment: Inhibitory activity tested against Saccharomyces cerevisiae at 256 ug/mL concentration; assay type: functional
[4] = system: Candida albicans; experiment: Inhibitory activity tested against Candida albicans at 256 ug/mL concentration; assay type: functional
[5] = system: Aspergillus fumigatus; experiment: Inhibitory activity tested against Aspergillus fumigatus at 256 ug/mL concentration; assay type: functional

| SMILES | pIC50 [1] | pKi [1] | other results |
| --- | --- | --- | --- |
| C[C@@H]([C@H](N)C(=O)N[C@H](C(=O)O)[C@H]1O[C@@H](n2ccc(=O)[nH]c2=O)[C@H](O)[C@@H]1O)[C@H](O)c1ccc(O)cn1 (stereo in doubt) [NIKKOMYCIN] | 6.30 | 6.47 | – |
| O=C(CC(=O)OC[C@H]1OC(n2ccc(=O)[nH]c2=O)[C@H](O)[C@@H]1O)OCc1ccc(O)cn1 (stereo partly specified) | 2.55 | – | – |
| O=C(NC[C@H]1OC(n2ccc(=O)[nH]c2=O)[C@H](O)[C@@H]1O)[C@H](O)[C@@H](O)C(=O)OCc1ccc(O)cn1 (stereo partly specified) | 2.49 | – | – |
| COCOc1ccc(COC(=O)CC(=O)OC[C@H]2OC(n3ccc(=O)[nH]c3=O)[C@H](O)[C@@H]2O)nc1 (stereo partly specified) | 1.97 | – | – |
| C[C@@H]([C@H](N)C(=O)N[C@H](C(=O)O)[C@H]1O[C@@H](n2ccc(=O)[nH]c2=O)[C@H](O)[C@@H]1O)[C@H](O)c1ccc(O)cn1 [NIKKOMYCIN] | 6.47 | – | – |

Continued, in another order:

| pIC50 [1] | SMILES | pKi [1] | other results |
| --- | --- | --- | --- |
| 3.10 | O=c1ccn([C@@H]2O[C@H](CO[C@@H]3O[C@@H](CO)[C@@H](O)[C@H](OCc4ccc5ccccc5n4)[C@@H]3O)[C@@H](O)[C@H]2O)c(=O)[nH]1 | 3.60 | – |
| 2.49 | O=c1ccn([C@@H]2O[C@H](CO[C@@H]3O[C@@H](COCc4ccc5ccccc5n4)[C@@H](O)[C@H](O)[C@@H]3O)[C@@H](O)[C@H]2O)c(=O)[nH]1 | – | inhibition at 256 µg/mL [2]: 80%; inhibition [3]: 30%; inhibition at 256 µg/mL [4]: 30%; inhibition at 256 µg/mL [5]: 30% |
| 2.70 | O=c1ccn([C@@H]2O[C@H](CO[C@@H]3O[C@@H](CO)[C@@H](OCc4ccc5ccccc5n4)[C@H](O)[C@@H]3O)[C@@H](O)[C@H]2O)c(=O)[nH]1 | – | – |
| 2.70 | O=C(NC[C@@H]1OC(n2ccc(=O)[nH]c2=O)[C@H](O)[C@@H]1O)[C@H](O)[C@@H](O)C(=O)OCc1ccc2ccccc2n1 (stereo partly specified) | 3.10 | – |
